How the values were obtained:
[1] = system: HIF-1α translation in presence of hnRNPA2B1; assay: In vitro transcription/translation assay of HIF-1α; assay type: biochemical, human; details: purified hnRNPA2B1 protein added
Method: HIF-1α proteins were synthesized using in vitro transcription/translation systems (Promega, Madison, WI), the protocol was followed the manufacturer’s instructions. In brief, mixtures containing reaction components were incubated at 30 °C for 60 min, and then analyzed by Western blotting using HIF-1α. The template was used HIF-1α plasmid DNA containing untranslated region (Korea human gene bank, Daejeon, Rep. of Korea), and full-length recombinant hnRNPA2B1 and MO-460 were added to the mixture.

[2] = biological target: T1, full-length hnRNPA2B1 (1–353 aa) (Homo sapiens, UniProt P22626); assay: BLItz association-dissociation binding assay, full-length hnRNPA2B1; details: 6XHis tagged protein, Con. 5 uM, biotin-MO-460 on streptavidin tip
T1 construct: 1–353 aa; His; made in house; host or cells: bacteria (pET28A vector)
Method: The binding capacity of hnRNPA2B1 to Biotin-MO-460 was also analyzed using a BLItz™ (Fortebio, Inc., CA, US) instrument with a streptavidin-coated biosensor tip (Pall, USA). The streptavidin-coated tips were pre-wetted for 10 min in an incubation buffer (10 mM HEPES pH 7.4, 1% BSA and 0.05% Tween 20). The streptavidin-coated tips were immobilized with 1 μM Biotin-MO-460 in incubation buffer (10 mM HEPES pH 7.4, 1% BSA and 0.05% Tween 20) for 5 min. […] The concentrations were then incubated with HEPES for another 3 min to desorb the protein. Analysis of the accurate and precise kinetic constants was performed by the BLItz data analysis software (BLItz Pro 1.1).

Hep3B cells = assay: Stress granule formation (immunostaining of hnRNPA2B1 and TIA-1); assay type: cell-based, human; details: mimetic hypoxia
HIF-1α protein = biological target: T2, HIF-1α protein (Homo sapiens, UniProt Q16665); assay: Affinity capture with Biotin-MO-460 followed by LC/MS; assay type: binding; details: two rounds of the affinity capture experiment
T2 construct: endogenous in cells; host or cells: Hep3B (cytosolic and nuclear lysates, CoCl2-treated)
Method: We synthesized biotinylated MO-460 using a recently reported method. Fractionation and enrichment of cytosol and nuclei were performed as described previously. Briefly, Hep3B (Human hepatocyte cancer cell line) was harvested and washed twice with PBS after treatment with 200 μM of CoCl2 for 24 h, and then resuspended in lysis buffer [10 mM HEPES pH 7.9, 10 mM KCl, 0.1 mM EGTA, 0.1 mM EDTA, 0.5 mM PMSF, 0.025% 2-Mercaptoethanol, 1.6% NP-40, and protease inhibitor cocktail]. After cell lysis and homogenization by vortexing for 10 s, the insoluble material was removed by centrifugation. The supernatant was collected as a cytosol-enriched lysate. The pellet was resuspended in nuclear extract buffer [20 mM HEPES pH 7.9, 400 mM NaCl, 1 mM EGTA, 1 mM EDTA, 1 mM DTT, 1 mM PMSF, protease inhibitor cocktail]. The pellet was then vortexed vigorously at 4 °C to separate the insoluble material. After the cytosol-enriched lysate (97.9 μg of protein) and the nuclei-enriched lysate (67.5 μg of protein) were precleared by incubation with NeutrAvidine^TM agarose-resins (Thermo Scientific) that were conjugated with biotin-linker (cytosol fraction: 600 μM, nuclear fraction: 1200 μM) for 12 h at 4 °C, the cleared cell lysate was incubated with NeutrAvidine^TM agarose-resins bound -Biotin-MO-460 (cytosol fraction: 200 μM, nuclear fraction: 400 μM) for 16 h at 4 °C, respectively. […]

HIF-1α = HIF-1α accumulation under real hypoxia (1% oxygen), western blotting and immunostaining; assay type: cell-based, human; details: 24 h
Method: For immunofluorescence observation, Hep3B cells were seeded on microplates at 2 or 5 × 10^4 cells/mL and cultured for 18 h. […] The medium in the microplate wells was then removed and cells were fixed with 3.7% formaldehyde in PBS for 15 min then permeabilized for 5 min with 100% cold MeOH. Cells were washed with PBS containing 1% bovine serum albumin (PBS-1% BSA), and then treated with 5% bovine serum albumin for 20 min. The cells in each well were treated with HIF-1α antibody in PBS-0.1% BSA then placed in a humidified atmosphere of 5% CO2 at 37 °C and incubated for 60 min. After being washed with PBS-0.1% BSA, treated wells of HIF-1α were incubated with Alexa Fluor 488-conjugated mouse anti-IgG antibody in PBS-0.1% BSA then incubated at room temperature for 60 min. After being washed with PBS-0.1% BSA, the dish wells were overlaid with Hoechst 33342 for 5 min at room temperature and then washed with PBS-0.1% BSA. Fluorescence was photographed with an inverted ECLIPSE Ti-U microscope (Nikon Corporation, Japan).

T1 sequence (P22626 whole entry, the tested form may be a part): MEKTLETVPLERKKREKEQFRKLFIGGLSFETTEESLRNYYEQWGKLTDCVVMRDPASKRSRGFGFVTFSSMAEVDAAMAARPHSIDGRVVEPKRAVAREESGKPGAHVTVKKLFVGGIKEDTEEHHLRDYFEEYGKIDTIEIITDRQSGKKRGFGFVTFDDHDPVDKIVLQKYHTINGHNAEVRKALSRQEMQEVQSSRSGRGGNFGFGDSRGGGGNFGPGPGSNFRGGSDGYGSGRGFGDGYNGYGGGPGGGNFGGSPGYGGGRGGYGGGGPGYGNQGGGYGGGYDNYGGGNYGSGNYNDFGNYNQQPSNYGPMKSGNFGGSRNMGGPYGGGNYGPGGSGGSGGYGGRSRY
T2 sequence (Q16665 whole entry): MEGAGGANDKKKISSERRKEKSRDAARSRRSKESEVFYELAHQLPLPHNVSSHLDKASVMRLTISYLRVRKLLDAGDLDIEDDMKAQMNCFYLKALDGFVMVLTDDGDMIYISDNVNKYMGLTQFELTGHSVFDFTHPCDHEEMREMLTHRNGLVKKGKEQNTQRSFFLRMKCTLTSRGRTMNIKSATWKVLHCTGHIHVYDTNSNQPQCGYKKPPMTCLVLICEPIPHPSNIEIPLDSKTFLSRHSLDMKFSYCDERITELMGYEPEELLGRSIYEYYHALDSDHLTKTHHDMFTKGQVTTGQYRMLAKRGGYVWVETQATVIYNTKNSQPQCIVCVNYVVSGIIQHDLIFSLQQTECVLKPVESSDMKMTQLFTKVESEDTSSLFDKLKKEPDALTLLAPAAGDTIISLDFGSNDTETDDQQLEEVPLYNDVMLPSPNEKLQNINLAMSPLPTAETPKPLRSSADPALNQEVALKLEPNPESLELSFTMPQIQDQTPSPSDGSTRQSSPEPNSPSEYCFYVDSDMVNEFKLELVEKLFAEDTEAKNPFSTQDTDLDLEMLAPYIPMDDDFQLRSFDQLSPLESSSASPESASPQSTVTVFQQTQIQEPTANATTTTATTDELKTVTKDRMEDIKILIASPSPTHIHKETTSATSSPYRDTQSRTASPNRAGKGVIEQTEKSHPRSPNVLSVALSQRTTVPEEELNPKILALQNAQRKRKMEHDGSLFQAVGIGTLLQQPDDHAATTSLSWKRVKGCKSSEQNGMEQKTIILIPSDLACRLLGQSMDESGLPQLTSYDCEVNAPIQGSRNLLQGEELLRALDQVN

With `CC(C)(O)[C@H]1Cc2cc3cc(-c4ccc(O)cc4)oc3cc2O1` [MO-460, (R)-4-[6-(1-Hydroxy-1-methylethyl)-5,6-dihydro-benzo[1,2-b;5,4-b’]difuran-2-yl]-phenol] the “effect on hnRNPA2B1-enhanced HIF-1α translation” value [1] was “attenuated this effect”, the Kd [2] was 11.4 µM and the “stress granule formation, co-localization with TIA-1” value (Hep3B cells) was “causes formation of cytoplasmic dots in hnRNPA2B1”. For the same molecule, the “binding to HIF-1α protein” value (HIF-1α protein) was “did not bind to HIF-1α protein” and the HIF-1α accumulation (HIF-1α) was “reduction in HIF-1α accumulation”.

— publication PMC6372683, “Mechanism of the natural product moracin-O derived MO-460 and its targeting protein hnRNPA2B1 on HIF-1α inhibition” (Experimental & Molecular Medicine, 2019)
